Where no end group is shown, it is not given here.
Test system: C. albicans strain DIS
Type: in vivo, mice ICR strain
Conditions: mouse, in vivo
Procedure: A previously described protocol was adopted (14). Mice were immunosuppressed with two subcutaneous injections of prednisolone at a dose of 100 mg/kg body weight 1 day prior to and 3 days after the infection with C. albicans. Tetracycline hydrochloride in drinking water at a concentration of 0.83 mg/ml was given to mice beginning 1 day before infection. Mice were anesthetized by intramuscular injection with 60 μl of 2 mg/ml chlorpromazine chloride, using a dose of 10 mg/kg body weight of mice. While under anesthesia, a small cotton ball soaked in 0.1 ml aliquot of C. albicans cell suspension (2.5×10^6 cells) was used to swab the entire oral cavity of the anesthetized mice.
Visual evaluation was done by carefully extending the tongue of randomly picked mice using blunt-end forceps, while the mice were under isoflurane sedation. Presence of thick, white curd-like patches indicated candidal infection. At day 3 post-infection, all animals were examined for evidence oral candidal infection by microbiological evaluation. The entire oral cavity of anesthetized mice was swabbed using a sterile calcium alginate disposable swab (Fisher Scientific), dampened with sterile PBS. Cells were then released from the swab into 1 ml PBS. Serial 10-fold dilutions were plated on SDA plates supplemented with streptomycin (30 μg/ml). Plates were incubated for 24 h at 37° C. and yeast cell count expressed as log10 of cfu/ml.
Tongues from sacrificed animals were used for histological studies. They were fixed in 10% formalin and embedded in paraffin. Serial five-μm sections were cut from the paraffin block and stained with periodic acid-Schiff (PAS) reagent for detection of C. albicans.
Mice were randomly divided into various treatment groups with 8 mice per group. Antifungal agents were employed on an equimolar basis, and included amphotericin B (1.75%), clotrimazole (0.66%), MUC7 12-mer (RKSYKCLHKRCR—SEQ ID NO:1) (L; 3%), MUC7 12-mer (D; 3%), MUC7 12-mer (D; 3%) containing Na2EDTA (1 mM), MUC7 12-mer (L; 3%) containing protease inhibitor cocktail (PIC) (1%), and Hsn5 12-mer (AKRHHGYKRKFH—SEQ ID NO:2) (3%). They were all emulsified in Pluronic F127, (20% lipoil), a polymer of polyoxyethylene and polyoxypropylene (non-ionic surfactant). Animals were anesthetized using isoflurane; while sedated, about 30 to 40 μl of the antifungal emulsion was applied on the tongue and spread throughout oral cavity. The treated mice were under sedation for additional 5 min under isoflurane. Animals were not given access to food and water for 1 h following the application.
Fungal burden was re-evaluated quantitatively after 3 and 6 days of treatment, using the same technique as the one used for initial evaluation. Randomly picked mice from each group was subjected to histopathological evaluation, after 6 days of treatment. Blood from randomly sacrificed mice from each treatment group was analyzed for any changes in the serum liver (AST, ALT, ALP etc.) and kidney enzymes (BUN, glucose, creatinine etc) levels.
Statistical analysis was performed using a significance level set at 0.05 (α) and a significant group size (n=8). Initial infection and antifungal treatment efficacy were determined using analysis of variance (ANOVA), expressed as log10 cfu, and Scheffe's multiple comparison test was used to determine the differences between various treatment groups.

**Q.** Which “additional tissue change in tongue section” value does the source give for AKRHHGYKRKFH [Hsn5 12-mer] here?
**A.** Its value is “acanthosis of the stratum spinosum”.
